Test system: patient diagnosed as having depression
Assay: Case of improvement of depressive symptoms by aspiration (or inhalation) of hydrogen
Format: in vivo, human
Details: for symptoms (depressive symptoms, anthropophobia, insomnia) under prescribed medication: patient, Abilify intramuscular injections, Lexotan Tablet 2 and Brotizolam Tablet taken together, before hydrogen
Excerpt: A patient diagnosed as having depression, who had suffered from anthropophobia and insomnia along with depressive symptoms, received intramuscular injections of Abilify™ (Otsuka Pharmaceutical Co., Ltd. (Japan); with indication of depressive disorder) prescribed by a doctor at the department of psychiatry, and took Lexotan™ Tablet 2 (Chugai Pharmaceutical Co., Ltd. (Japan); with an indications of anxiety and tension associated with depressive disorder) and Brotizolam Tablet (Choseido Pharmaceutical Co., Ltd.; with indication of insomnia); however, the symptoms were not improved. Thus, hydrogen gas (70 to 140 ml/min) was aspirated for 1 hour once or twice a day using a hydrogen aspirator (MHG-2000α™ (MiZ Company Limited)) over about half a year while the medication was continued. As a result, the number of days on which it was possible to naturally fall asleep increased (2 or 3 days a week), and the liveliness of voice was enhanced. About half a year after the start of aspiration (or inhalation) of hydrogen gas, administration of the Brotizolam Tablet was discontinued, and the amount of hydrogen gas aspirated was increased (280 ml/min for 6 hours per day). The aspiration of hydrogen gas was continued over about 3 months. As a result, the depressive symptoms were improved, and therefore the use of Abilify and Lexotan Tablet 2 was discontinued on the basis of the doctor's judgement. […] After the use of Abilify and Lexotan Tablet 2, aspiration of hydrogen gas (280 ml/min for 6 hours per day) was continued.

[1] = hydrogen gas 280 ml/min for 6 hours per day continued after Abilify and Lexotan Tablet 2 were discontinued

O=C1CCc2ccc(OCCCCN3CCN(c4cccc(Cl)c4Cl)CC3)cc2N1 [Abilify, aripiprazole, reference compound]
symptoms (depressive symptoms, anthropophobia, insomnia) under prescribed medication: not improved

Cc1nnc2n1-c1sc(Br)cc1C(c1ccccc1Cl)=NC2 [Brotizolam Tablet, Brotizolam, reference compound]
symptoms (depressive symptoms, anthropophobia, insomnia) under prescribed medication: not improved

O=C1CN=C(c2ccccn2)c2cc(Br)ccc2N1 [Lexotan Tablet 2, bromazepam, reference compound]
symptoms (depressive symptoms, anthropophobia, insomnia) under prescribed medication: not improved

[HH] [hydrogen gas, hydrogen]
liveliness of voice (hydrogen gas 70 to 140 ml/min aspirated 1 hour once or twice a day over about half a year, medication continued): enhanced
care personnel's evaluation of the patient [1]: being much more cheerful in disposition than before
depressive symptoms [1]: improved to the extent that the patient went outside more frequently than before, and enjoyed a life similar to a healthy person
depressive symptoms (hydrogen gas 280 ml/min for 6 hours per day over about 3 months, Brotizolam discontinued, Abilify and Lexotan continued): improved
improving effect on depressive symptoms versus amount of hydrogen gas aspirated per day (same patient, 70 to 140 ml/min 1 hour once or twice a day versus 280 ml/min 6 hours per day): enhanced as the amount of hydrogen gas aspirated by the patient per day increases
